Assay results: ChEMBL document CHEMBL1129940, “Cytotoxicity of platinum (II) dinuclear complexes with 1-alkylthymine ligands against mouse sarcoma 180 cells” (J Med Chem, 1997)

Tested on: CCRF S-180
Experiment: In vitro inhibitory concentration against growth of mouse sarcoma 180 (S-180) cells
Format: functional, cell-based

- IC50: 1.07 µM
Sequence: CISPLATIN
